pIC50: −log10 of the molar value. Like-named read-outs stand apart in the source and are kept apart here.
Assays:
Chattonella Marina [1] = experiment: Microalgae-destroying effect by IC50 measurement (cell count); type: cell-based; conditions: 24 h, cultured 1 day, read-out: IC50 Chattonella Marina
Method: (§1) The IC50 value was obtained according to Equation 1: […]
(§2) First, the above-listed microalgae were cultured in a culture flask at a temperature of about 20° C. under light conditions, and a medium used was Guillard's f/2 medium which is commonly used in the art (Guillard R R L and Keller M D. Culturing dinoflagellates. In: Spector (Ed.), Dinoflagellates. New York: Academic Press; 1984, 391442).
(§3) After the cultured microalgae were transferred onto a 24-well plate, Chattonella Marina, Heterosigma circularisquama, Cochlodinium Polykrikoides, and Heterosigma akashiwo, which were in an exponential growth phase, were treated with Compounds 1 to 3, 5 to 10, 12, 13, 17 to 43, and 45 to 47 synthesized in Examples 1 to 3, 5 to 10, 12, 13, 17 to 43, and 45 to 47 at concentrations of 0.1 uM, 0.2 uM, 0.5 uM, 1 uM, 2 uM, and 5 uM, and then cultured for 1 day.
(§4) Control groups were not treated with any of the compounds synthesized in the above-identified examples. After incubation, the number of cells of each alga was counted using a Burker-Tukr hemocytometer, and IC50 values were calculated according to Equation 1 using SigmaPlot Version 11.2 software (Standard curve: the four-parameter logistic curve).

[2] = system: Heterocapsa Circularisquama; experiment: as above; type: cell-based; conditions: 24 h, cultured 1 day
Method: as §1, §2, §3, §4

Heterosigma Akashiwo [3] = experiment: as above; type: cell-based; conditions: 24 h, cultured 1 day, read-out: IC50 Heterosigma Akashiwo
Method: as §1, §2, §3, §4

[4] = system: Cochlodinium Polykrikoides; experiment: as above; type: cell-based; conditions: Margalefidinium polykrikoides, 24 h, 0.1-5 uM, cultured 1 day, read-out: IC50 Cochlodinium Polykrikoides
Method: (§5) The IC50 value was obtained according to Equation 1:
(§6) The algicidal activity of each compound was calculated using Equation 2: Algicidal activity (%)=(1−Tt/Ct)×100 <Equation 2>
(§7) In Equation 2, T (treatment group) and C (control group) represent algae densities in cell counts when each compound was inoculated and was not inoculated, respectively, and t represents the number of days which had passed after the inoculation.
as §2, §3, §4

Microcystis aeruginosa [5] = experiment: as above; type: cell-based; conditions: Microcystis aeruginosa, 120 h, read-out: IC50 Microcystis aeruginosa
Method: as §5, §6, §7, §2
Microcystis aeruginosa was treated with Compounds 1 to 3, 5 to 10, 12, 13, 17 to 43, and 45 to 51 synthesized in Examples 1 to 3, 5 to 10, 12, 13, 17 to 43, and 45 to 51 at concentrations of 0.1 uM, 0.2 uM, 0.5 uM, 1 uM, 2 uM, 5 uM, 10 uM, 15 uM, and 20 uM and then cultured for 5 days.
as §4

Chattonella Marina [6] = experiment: Microalgae-destroying effect by surviving cells rate measurement; type: cell-based; conditions: 1 μM, about 6 hours
Method: (§8) To investigate a microalgae-destroying effect of Compound 35 synthesized in Example 35, culture solutions of Chattonella Marina, Heterosigma Circularisquama, Cochlodinium Polykrikoides, and Heterosigma akashiwo (40 mL, initial population number: about 15×10^4 to 18×10^4/mL) were each treated with a solution of Compound 35 (1 μM in dimethyl sulfoxide (DMSO) and f/2 medium) for about 6 hours. A microalgae culture solution not treated with a solution of Compound 35 was used as a control group. After the treatment, viable cell ratios of the microalgae with respect to time were measured, and it was also observed whether the microalgae were destroyed.

[7] = system: Cochlodinium Polykrikoides; experiment: as above; type: cell-based; conditions: 1 μM, about 6 hours
Method: as §8

Heterosigma Akashiwo [8] = experiment: as above; type: cell-based; conditions: 1 μM, about 6 hours
Method: as §8

[9] = system: Heterosigma Circularisquama; experiment: as above; type: cell-based; conditions: 1 μM, about 6 hours
Method: as §8

Danio rerio = experiment: Acute toxicity test on Danio rerio; type: in vivo; conditions: 15 μM, 2 weeks; FIG. 5
Method: An acute toxicity test on Danio rerio (zebrafish) was performed using compounds 33 and 35 synthesized in Examples 33 and 35. In particular, 2-cm-sized Danio rerio, which had been 3 months since hatching, was acclimatized for 14 days before the start of the experiment. The Danio rerio were feed twice a day during the acclimation period. Next, solutions of Compounds 33 and […] were prepared at concentrations of 0, 5, 10, 15, 20, 25, and 30 μM. Culture solutions of the Danio rerio (10 L, initial population number: 10 zebrafish in total (1 zebrafish/L)) were treated for 2 weeks with the solutions of Compounds 33 and 35 at different concentrations to thereby perform the acute toxicity test.

Microcystis aeruginosa [10] = experiment: Microalgae-destroying effect of Compound 2, viable cell counts; type: cell-based; conditions: 0.5 μM, 1 μM, and 2 μM, observed for 2 days; FIG. 3
Method: To investigate a microalgae-destroying effect of Compound 2 synthesized in Example 2, culture solutions of Microcystis aeruginosa (40 mL; initial population number: 100×10^4/mL) in DMSO and BG11 medium were each treated with solutions of Compound 2 at 0.5 μM, 1 μM, and 2 μM and observed for 2 days. A culture solution of the microalgae not treated with a solution of Compound 2 was used as a control group.

Daphnia magna = experiment: Acute toxicity test on Daphnia magna; type: in vivo; conditions: 5 μM, 2 days; FIG. 4
Method: An acute toxicity test was performed on Daphnia magna (water flea) using Compounds 33 and 35 synthesized in Examples 33 and 35. In particular, culture solutions of Daphnia magna (200 mL, 30 animals) in DMSO and M4 medium were treated with solutions of Compounds 33 and 35 at 5 μM, 10 μM, and 15 μM for 2 days.

[11] = Table 1, 3,4-dichlorobenzylamines, 0.1-5 uM
[12] = Table 1, 3,4-dichlorobenzylamines, 0.1-5 uM, read-out: IC50 Heterocapsa Circularisquama
[13] = Table 1, 3,4-dichlorobenzylamines
[14] = Table 1, 3,4-dichlorobenzylamines, 0.1-20 uM, cultured 5 days
[15] = Table 2, 0.1-5 uM, read-out: IC50 Heterocapsa Circulariaquama

Compound | pIC50 (Chattonella Marina [1]; [11]) | pIC50 [2, 12] | pIC50 (Heterosigma Akashiwo [3]; [11]) | pIC50 [4, 13] | pIC50 (Microcystis aeruginosa [5]; [14]) | other results
Clc1ccc(CNC2CCCCC2)cc1Cl [Compound 35, Cyclohexyl-(3,4-dichloro-benzyl)-amine] | 6.54 | 5.94 | 6.66 | 6.82 | 4.84 | viable cell ratio with respect to time (Chattonella Marina [6]; FIG. 1): decreased with time; whether the microalgae were destroyed (microscope images) (Chattonella Marina [6]; FIG. 2): destroyed; viable cell ratio with respect to time ([7]; FIG. 1): decreased with time; whether the microalgae were destroyed (microscope images) ([7]; FIG. 2): destroyed; viable cell ratio with respect to time (Heterosigma Akashiwo [8]; FIG. 1): decreased with time; whether the microalgae were destroyed (microscope images) (Heterosigma Akashiwo [8]; FIG. 2): destroyed; viable cell ratio with respect to time ([9]; FIG. 1): decreased with time; whether the microalgae were destroyed (microscope images) ([9]; FIG. 2): destroyed; survival ratio (Danio rerio): 100%
CCN(CC)CCCNCc1ccc(Cl)c(Cl)c1 [Compound 2, N′-(3,4-Dichloro-benzyl)-N,N-diethyl-propane-1,3-diamine] | 5.59 | 5.47 | 5.89 | 6.49 | 6.24 | viable cell counts of Microcystis with respect to time (Microcystis aeruginosa [10]): high algicidal effect
Clc1ccc(CNCc2ccncc2)cc1Cl [Compound 28, (3,4-Dichloro-benzyl)-pyridin-4-ylmethyl-amine] | < 5.30 | < 5.30 | 5.64 | < 5.30 | 4.82 | 
Clc1ccc(CNCCc2ccccn2)cc1Cl [Compound 32, (3,4-Dichloro-benzyl)-(2-pyridin-2-yl-ethyl)-amine] | 6.51 | 5.98 | 6.74 | 6.30 | 4.71 | 
CN(C)CCCNCc1ccc(Cl)c(Cl)c1 [Compound 8, N′-(3,4-Dichloro-benzyl)-N,N-dimethyl-propane-1,3-diamine] | 6.09 | 5.48 | 5.90 | 6.54 | 7.05 | 
Clc1ccc(CNC2CCc3ccccc32)cc1Cl (stereo not shown) [Compound 45, (3,4-Dichloro-benzyl)-indan-1-yl-amine] | 5.84 | 5.70 | 5.94 | 6.51 | < 4.70 | 
CCCCNCc1ccc(Cl)c(Cl)c1 [Compound 20, Butyl-(3,4-dichloro-benzyl)-amine] | 5.50 | 5.54 | 6.36 | 5.45 | < 4.70 | 
c1ccc(CNCCc2ccccn2)cc1 [Compound 37, Benzyl-(2-pyridin-2-yl-ethyl)-amine] |  |  |  |  |  | pIC50 (Chattonella Marina [1]; Table 2, 0.1-5 uM): 6.47; pIC50 [2, 15]: < 5.30; pIC50 (Heterosigma Akashiwo [3]; Table 2, 0.1-5 uM): 6.89; pIC50 ([4]; Table 2): < 5.30; pIC50 (Microcystis aeruginosa [5]): < 5.30
c1ccc(CNC2CCCCC2)cc1 [Compound 43, Benzyl-cyclohexyl-amine] |  |  |  |  |  | pIC50 (Chattonella Marina [1]; Table 2, 0.1-5 uM): < 5.30; pIC50 [2, 15]: < 5.30; pIC50 (Heterosigma Akashiwo [3]; Table 2, 0.1-5 uM): 6.17; pIC50 ([4]; Table 2): < 5.30; pIC50 (Microcystis aeruginosa [5]): < 5.30
Clc1ccc(CNc2ccccc2)cc1Cl [Compound 19, (3,4-Dichloro-benzyl)-phenyl-amine] | 5.46 | < 5.30 | 5.90 | 5.38 | 4.86 | 
CCNCc1ccc(Cl)c(Cl)c1 [Compound 17, (3,4-Dichloro-benzyl)-ethyl-amine] | < 5.30 | < 5.30 | 5.93 | < 5.30 | < 4.70 | 
Clc1ccc(CNC2CCCC2)cc1Cl [Compound 33, Cyclopentyl-(3,4-dichloro-benzyl)-amine] | 6.49 | 5.98 | 6.61 | 6.44 | 4.71 | survival ratio (Daphnia magna): about 100%; survival ratio (Danio rerio): 100%
Clc1ccc(CNCc2cccnc2)cc1Cl [Compound 27, (3,4-Dichloro-benzyl)-pyridin-3-ylmethyl-amine] | < 5.30 | 5.45 | 6.10 | 5.70 | < 4.70 | 
CC(C)CCNCc1ccc(Cl)c(Cl)c1 [Compound 7, (3,4-Dichloro-benzyl)-(3-methyl-butyl)-amine] | 5.70 | 5.82 | 6.55 | 5.82 | 4.94 | 
